According to patent US20230416329A1, “A PEPTIDE WITH DISULFIDE BONDS AND INHIBITORY ACTIVITY AGAINST SERINE PROTEASES, DERIVED HYBRID PEPTIDES THEREOF, AND USES THEREOF” (INSTITUTE OF MATERIA MEDICA , CHINESE ACADEMY OF MEDICAL …, priority 2020, published 2023):

What was measured:
[1] = biological target: DPP-IV (Homo sapiens, UniProt P27487); assay: Tolerance of GLP-1 and its analogues to DPP-IV (RP-HPLC remaining peak area); type: in vitro ADME; settings: peptide 25 μM, DPP-IV 0.5 ng/μL, 37° C.; for Remaining peak area (%)/DPP-IV: 0.0 h; for remaining at 0.5 h, 25 μM / remaining at 2 h, 25 μM / remaining at 4 h, 25 μM / remaining at 8 h, 25 μM / remaining at 12 h, 25 μM: isolated DPP-IV enzyme in buffer, pH 8
Chain of DPP-IV (P27487 whole entry, species assumed): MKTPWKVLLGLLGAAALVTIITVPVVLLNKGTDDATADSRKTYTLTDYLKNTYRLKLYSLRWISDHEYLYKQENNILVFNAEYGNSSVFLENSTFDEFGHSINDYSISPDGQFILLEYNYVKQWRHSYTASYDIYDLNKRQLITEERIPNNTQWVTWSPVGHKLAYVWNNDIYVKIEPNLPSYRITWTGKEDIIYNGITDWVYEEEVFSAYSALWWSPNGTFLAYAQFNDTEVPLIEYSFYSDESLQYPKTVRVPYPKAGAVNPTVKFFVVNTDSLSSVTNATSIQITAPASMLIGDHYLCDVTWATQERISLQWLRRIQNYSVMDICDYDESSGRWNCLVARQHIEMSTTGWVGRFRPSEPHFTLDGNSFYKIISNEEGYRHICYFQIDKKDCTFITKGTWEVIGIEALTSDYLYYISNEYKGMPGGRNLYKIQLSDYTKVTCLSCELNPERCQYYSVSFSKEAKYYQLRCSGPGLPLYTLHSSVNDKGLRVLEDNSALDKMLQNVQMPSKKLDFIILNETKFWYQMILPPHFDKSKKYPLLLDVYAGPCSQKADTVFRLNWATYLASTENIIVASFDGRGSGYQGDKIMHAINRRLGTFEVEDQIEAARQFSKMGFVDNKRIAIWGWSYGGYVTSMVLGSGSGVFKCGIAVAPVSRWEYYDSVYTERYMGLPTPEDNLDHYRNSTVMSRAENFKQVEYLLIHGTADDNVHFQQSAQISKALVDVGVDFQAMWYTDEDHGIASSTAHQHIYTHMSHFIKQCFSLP
Protocol: (§1) Mix by centrifugation at 8000 rpm for 30 seconds.
(2) Arrange a certain volume of 0.005 μg/μL DPP-IV solution in another sterile EP.

[2] = biological target: NEP24.11 (Homo sapiens, UniProt P08473); assay: Tolerance of GLP-1 and its analogues to NEP24.11 (RP-HPLC remaining peak area); type: in vitro ADME; settings: for Remaining peak area (%)/NEP24.11: 0.0 h; for Remaining peak area (%)/NEP24.11 / remaining at 0.5 h, 30 μM / remaining at 2 h, 30 μM / remaining at 4 h, 30 μM / remaining at 8 h, 30 μM: peptide 30 μM, NEP24.11 1.0 ng/μL, 37° C.; for remaining at 0.5 h, 30 μM / remaining at 2 h, 30 μM / remaining at 4 h, 30 μM / remaining at 8 h, 30 μM: isolated NEP24.11 enzyme in buffer; for remaining at 0.5 h, 30 μM: pH 7.4, 0.5 h; for remaining at 2 h, 30 μM: pH 7.4, 2.0 h; for remaining at 4 h, 30 μM: pH 7.4, 4.0 h; for remaining at 8 h, 30 μM: pH 7.4, 8.0 h, read-out: Remaining peak area (%)/NEP24.11
Chain of NEP24.11 (P08473 whole entry): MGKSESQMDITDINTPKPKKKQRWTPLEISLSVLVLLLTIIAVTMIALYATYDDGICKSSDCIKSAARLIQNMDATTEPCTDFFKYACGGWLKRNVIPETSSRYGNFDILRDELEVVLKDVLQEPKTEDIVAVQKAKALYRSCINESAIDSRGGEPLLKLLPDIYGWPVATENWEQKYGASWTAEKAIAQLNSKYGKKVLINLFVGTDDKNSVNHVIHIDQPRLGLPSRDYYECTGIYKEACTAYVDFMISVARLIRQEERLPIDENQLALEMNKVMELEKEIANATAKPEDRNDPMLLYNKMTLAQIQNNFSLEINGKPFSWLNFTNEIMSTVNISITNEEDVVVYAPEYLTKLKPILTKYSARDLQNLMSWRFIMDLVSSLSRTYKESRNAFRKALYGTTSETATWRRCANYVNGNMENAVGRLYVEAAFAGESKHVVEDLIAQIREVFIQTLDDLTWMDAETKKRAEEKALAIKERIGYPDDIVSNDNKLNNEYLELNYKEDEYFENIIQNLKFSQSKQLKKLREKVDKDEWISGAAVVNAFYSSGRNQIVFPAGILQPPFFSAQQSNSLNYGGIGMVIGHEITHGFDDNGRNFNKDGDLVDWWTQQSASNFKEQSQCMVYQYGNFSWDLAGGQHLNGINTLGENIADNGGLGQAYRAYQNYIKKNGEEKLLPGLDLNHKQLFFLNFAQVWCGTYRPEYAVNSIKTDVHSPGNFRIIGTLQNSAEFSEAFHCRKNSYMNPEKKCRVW
Protocol: as §1
Arrange a certain volume of 0.04 μg/μL NEP24.11 enzyme solution in another sterile EP.

[3] = biological target: T1, trypsin (Bos taurus, UniProt P00760); assay: in vitro
T1 sequence (P00760 24-246): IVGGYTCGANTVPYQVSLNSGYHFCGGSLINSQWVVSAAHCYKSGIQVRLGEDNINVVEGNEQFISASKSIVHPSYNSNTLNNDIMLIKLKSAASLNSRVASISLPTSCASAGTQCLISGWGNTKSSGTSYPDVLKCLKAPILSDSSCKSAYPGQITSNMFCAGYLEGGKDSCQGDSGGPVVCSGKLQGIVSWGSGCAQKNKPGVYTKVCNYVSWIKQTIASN
Protocol: FIG. 17. […] At different time point, 25 μL aliquots was taken out, and 10% (v/v) TFA was added to terminate the reaction.
as §1
(§2) Arrange a certain volume of 0.05 μg/μL trypsin solution in another sterile EP. Incubate the EP tubes containing peptides and enzymes at 37° C. for 5 min, and separately add 6 μL of trypsin solution to each EP tube containing peptides and mix well. Start timing and extract 25 μL of reaction solution at 1.5, 3.0, 4.5, 6.0 and 9.0 min later, respectively. Add 3.75 μL of 10% TFA to terminate the reaction and mix well by centrifugation at 8000 rpm for 30 seconds.
as §2, with “and” for “and separately”, “9” for “6”, “6.0, 9.0, 15.0, 30.0,” for “6.0”, “60.0” for “9.0”
Referring to the experimental method in Example 5, in vitro stability of salmon Calcitonin analogs with oral administration activity to the enzymatic hydrolysis by trypsin, chymotrypsin and elastase were performed.
Referring to the experimental method in Example 5, in vitro stability of IL-17A inhibitory peptides towards the enzymatic hydrolysis by trypsin, chymotrypsin and elastase were performed.

[4] = biological target: chymotrypsin (Bos taurus, UniProt P00766); assay: in vitro; settings: isolated enzyme chymotrypsin, pH 7.8, Remaining peak area (%)/chymotrypsin
Summary of the method: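 Peptide and 0.05 μg/μL chymotrypsin were preincubated at 37 °C for 5 min, then mixed. Aliquots taken from 1.5 up to 60.0 min were quenched with 10% TFA, and remaining peptide was measured as RP-HPLC peak area.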

[5] = isolated enzyme trypsin, pH 7.8

SMILES: CC[C@H](C)[C@H](NC(=O)[C@H](Cc1ccccc1)NC(=O)[C@H](CCC(=O)O)NC(=O)[C@H](CCCCN)NC(=O)[C@H](C)NC(=O)[C@H](C)NC(=O)[C@H](CCC(N)=O)NC(=O)CNC(=O)[C@H](CCC(=O)O)NC(=O)[C@H](CC(C)C)NC(=O)[C@H](Cc1ccc(O)cc1)NC(=O)[C@H](CO)NC(=O)[C@H](CO)NC(=O)[C@@H](NC(=O)[C@H](CC(=O)O)NC(=O)[C@H](CO)NC(=O)[C@@H](NC(=O)[C@H](Cc1ccccc1)NC(=O)[C@@H](NC(=O)CNC(=O)[C@H](CCC(=O)O)NC(=O)[C@H](C)NC(=O)[C@H](Cc1c[nH]cn1)NC(=O)CNC(=O)CNC(=O)[C@H](CCCNC(=N)N)NC(=O)[C@H](CO)NC(=O)[C@H](Cc1ccccc1)NC(=O)[C@H](CCCNC(=N)N)NC(=O)[C@H](CCC(N)=O)NC(=O)CNC(=O)CNC(=O)[C@H](Cc1ccccc1)NC(=O)[C@@H]1CSSC[C@H](N)C(=O)NCC(=O)N[C@@H](CCCNC(=N)N)C(=O)N[C@@H](C)C(=O)N[C@@H]([C@@H](C)O)C(=O)N[C@@H](CCCCN)C(=O)N[C@@H](CO)C(=O)N[C@@H]([C@@H](C)CC)C(=O)N2CCC[C@H]2C(=O)N2CCC[C@H]2C(=O)N[C@@H]([C@@H](C)CC)C(=O)N1)[C@@H](C)O)[C@@H](C)O)C(C)C)C(=O)N[C@@H](C)C(=O)N[C@@H](Cc1c[nH]c2ccccc12)C(=O)N[C@@H](CC(C)C)C(=O)N[C@H](C(=O)N[C@@H](CCCCN)C(=O)NCC(=O)N[C@@H](CCCNC(=N)N)C(=O)NCC(=O)NCC(=O)N[C@@H](CCCCN)C(=O)O)C(C)C [BT9-N-GLP-1]
- Remaining peak area (%)/DPP-IV [1]: 100.0 ± 0.0%
- remaining at 0.5 h, 25 μM [1]: 92.5 ± 1.5%
- remaining at 2 h, 25 μM [1]: 88 ± 1.8%
- remaining at 4 h, 25 μM [1]: 79.4 ± 2.2%
- remaining at 8 h, 25 μM [1]: 76.1 ± 1.4%
- remaining at 12 h, 25 μM [1]: 71.2 ± 2.1%
- Remaining peak area (%)/NEP24.11 [2]: 100.0 ± 0.0%
- remaining at 0.5 h, 30 μM [2]: 76.4 ± 1.1%
- remaining at 2 h, 30 μM [2]: 63.5 ± 1.9%
- remaining at 4 h, 30 μM [2]: 47 ± 4.3%
- remaining at 8 h, 30 μM [2]: 41.8 ± 2.7%
- remaining at 0.025 h, 60 μM [3, 5]: 90.8 ± 0.5%
- remaining at 0.05 h, 60 μM [3, 5]: 90.4 ± 2%
- remaining at 0.075 h, 60 μM [3, 5]: 91 ± 2.1%
- remaining at 0.1 h, 60 μM [3, 5]: 91.1 ± 3%
- remaining at 0.15 h, 60 μM [3, 5]: 90.9 ± 3.1%
- remaining at 0.25 h, 60 μM [3, 5]: 86.6 ± 3.5%
- remaining at 0.5 h, 60 μM [3, 5]: 86.5 ± 3.5%
- remaining at 1 h, 60 μM [3, 5]: 74.4 ± 2.6%
- remaining at 0.025 h, 60 μM [4]: 77.1 ± 1.8%
- remaining at 0.05 h, 60 μM [4]: 57.7 ± 2%
- remaining at 0.075 h, 60 μM [4]: 50.4 ± 3.2%
- remaining at 0.1 h, 60 μM [4]: 41.2 ± 3.1%
- remaining at 0.15 h, 60 μM [4]: 26 ± 2.9%

SMILES: CC[C@H](C)[C@H](NC(=O)[C@H](Cc1ccccc1)NC(=O)[C@H](CCC(=O)O)NC(=O)[C@H](CCCCN)NC(=O)[C@H](C)NC(=O)[C@H](C)NC(=O)[C@H](CCC(N)=O)NC(=O)CNC(=O)[C@H](CCC(=O)O)NC(=O)[C@H](CC(C)C)NC(=O)[C@H](Cc1ccc(O)cc1)NC(=O)[C@H](CO)NC(=O)[C@H](CO)NC(=O)[C@@H](NC(=O)[C@H](CC(=O)O)NC(=O)[C@H](CO)NC(=O)[C@@H](NC(=O)[C@H](Cc1ccccc1)NC(=O)[C@@H](NC(=O)CNC(=O)[C@H](CCC(=O)O)NC(=O)[C@H](C)NC(=O)[C@H](Cc1c[nH]cn1)NC(=O)CNC(=O)CNC(=O)[C@@H](NC(=O)[C@@H]1CCCN1C(=O)[C@@H](NC(=O)CNC(=O)CNC(=O)[C@H](CCCNC(=N)N)NC(=O)[C@H](CO)NC(=O)[C@H](Cc1ccccc1)NC(=O)[C@H](CCCNC(=N)N)NC(=O)[C@H](CCC(N)=O)NC(=O)CNC(=O)CNC(=O)[C@@H]1CSSC[C@H](N)C(=O)N2CCC[C@H]2C(=O)N[C@@H](CCCCN)C(=O)N[C@@H]([C@@H](C)CC)C(=O)N[C@@H](CC(C)C)C(=O)N[C@@H](CCC(N)=O)C(=O)N[C@@H](CCCNC(=N)N)C(=O)N1)[C@@H](C)CC)[C@@H](C)CC)[C@@H](C)O)[C@@H](C)O)C(C)C)C(=O)N[C@@H](C)C(=O)N[C@@H](Cc1c[nH]c2ccccc12)C(=O)N[C@@H](CC(C)C)C(=O)N[C@H](C(=O)N[C@@H](CCCCN)C(=O)NCC(=O)N[C@@H](CCCNC(=N)N)C(=O)NCC(=O)NCC(=O)N[C@@H](CCCCN)C(=O)O)C(C)C [DNT-GLP-1]
- Remaining peak area (%)/DPP-IV [1]: 100.0 ± 0.0%
- remaining at 0.5 h, 25 μM [1]: 108 ± 9.3%
- remaining at 2 h, 25 μM [1]: 108 ± 1.7%
- remaining at 4 h, 25 μM [1]: 105 ± 2.3%
- remaining at 8 h, 25 μM [1]: 105 ± 1.7%
- remaining at 12 h, 25 μM [1]: 97.4 ± 2.1%
- Remaining peak area (%)/NEP24.11 [2]: 100.0 ± 0.0%
- remaining at 0.5 h, 30 μM [2]: 82.2 ± 1.3%
- remaining at 2 h, 30 μM [2]: 79.1 ± 1.7%
- remaining at 4 h, 30 μM [2]: 77.9 ± 4.2%
- remaining at 8 h, 30 μM [2]: 67.8 ± 4.7%
- stability towards trypsin hydrolysis (in words) [3]: completely degraded
- remaining at 0.025 h, 60 μM [3, 5]: 68.3 ± 5.9%
- remaining at 0.05 h, 60 μM [3, 5]: 44.9 ± 3.5%
- remaining at 0.075 h, 60 μM [3, 5]: 21.2 ± 1.1%
- remaining at 0.1 h, 60 μM [3, 5]: 0%
- remaining at 0.15 h, 60 μM [3, 5]: 0%
- remaining at 0.025 h, 60 μM [4]: 97 ± 5.7%
- remaining at 0.05 h, 60 μM [4]: 89.8 ± 0.9%
- remaining at 0.075 h, 60 μM [4]: 85.1 ± 4.4%
- remaining at 0.1 h, 60 μM [4]: 84.3 ± 2%
- remaining at 0.15 h, 60 μM [4]: 78.2 ± 2.1%

SMILES: CC[C@H](C)[C@H](NC(=O)[C@H](Cc1ccccc1)NC(=O)[C@H](CCC(=O)O)NC(=O)[C@H](CCCCN)NC(=O)[C@H](C)NC(=O)[C@H](C)NC(=O)[C@H](CCC(N)=O)NC(=O)CNC(=O)[C@H](CCC(=O)O)NC(=O)[C@H](CC(C)C)NC(=O)[C@H](Cc1ccc(O)cc1)NC(=O)[C@H](CO)NC(=O)[C@H](CO)NC(=O)[C@@H](NC(=O)[C@H](CC(=O)O)NC(=O)[C@H](CO)NC(=O)[C@@H](NC(=O)[C@H](Cc1ccccc1)NC(=O)[C@@H](NC(=O)CNC(=O)[C@H](CCC(=O)O)NC(=O)[C@H](C)NC(=O)[C@H](Cc1c[nH]cn1)NC(=O)CNC(=O)CNC(=O)CNC(=O)CNC(=O)CNC(=O)CNC(=O)CN)[C@@H](C)O)[C@@H](C)O)C(C)C)C(=O)N[C@@H](C)C(=O)N[C@@H](Cc1c[nH]c2ccccc12)C(=O)N[C@@H](CC(C)C)C(=O)N[C@H](C(=O)N[C@@H](CCCCN)C(=O)NCC(=O)N[C@@H](CCCNC(=N)N)C(=O)NCC(=O)O)C(C)C [G7-GLP-1]
- Remaining peak area (%)/DPP-IV [1]: 100.0 ± 0.0%
- remaining prototype peptide after DPP-IV treatment ([1]; 12 hours): about 34.5%
- remaining at 0.5 h, 25 μM [1]: 42.1 ± 15.5%
- remaining at 2 h, 25 μM [1]: 51.1 ± 6.5%
- remaining at 4 h, 25 μM [1]: 55.3 ± 14.4%
- remaining at 8 h, 25 μM [1]: 42.3 ± 9.6%
- remaining at 12 h, 25 μM [1]: 34.5 ± 2.1%
- Remaining peak area (%)/NEP24.11 [2]: 100.0 ± 0.0%
- degradation by NEP24.11 (in words) ([2]; after 8 hours): almost completely degraded
- remaining at 0.5 h, 30 μM [2]: 63 ± 5.1%
- remaining at 2 h, 30 μM [2]: 27.2 ± 7.2%
- remaining at 4 h, 30 μM [2]: 11.5 ± 0.3%
- remaining at 8 h, 30 μM [2]: 0%
- remaining at 0.025 h, 60 μM [3, 5]: 21 ± 2.9%
- remaining at 0.05 h, 60 μM [3, 5]: 17.2 ± 0.8%
- remaining at 0.075 h, 60 μM [3, 5]: 9.8 ± 2.9%
- remaining at 0.1 h, 60 μM [3, 5]: 4.5 ± 0.8%
- remaining at 0.15 h, 60 μM [3, 5]: 3.4 ± 1.7%
- remaining at 0.025 h, 60 μM [4]: 72.1 ± 11.5%
- remaining at 0.05 h, 60 μM [4]: 45.8 ± 6.5%
- remaining at 0.075 h, 60 μM [4]: 38 ± 2.3%
- remaining at 0.1 h, 60 μM [4]: 29.3 ± 4.7%
- remaining at 0.15 h, 60 μM [4]: 11.3 ± 3.2%
